Assay results as given in patent US20240299486A1, “ADDRESSING INJECTION SITE REACTIONS ASSOCIATED WITH THE ADMINISTRATION OF ELAMIPRETIDE” (STEALTH BIOTHERAPEUTICS INC., priority 2022, published 2024).

Experiments:
[1] = system: Mouse primary peritoneal mast cells; assay: Mast cell activation (Fluo-4 calcium imaging); assay type: cell-based; details: 500 micrograms/mL elamipretide
Description: Mouse primary peritoneal mast cells were isolated from wild type and Mrgprb2 knockout mice. Mast cells were incubated in Dulbecco's Modified Eagle Medium, supplemented with 10% fetal bovine serum and 100 ng/mL human stem cell factor for 2 hours in wells of a glass-bottom 96 well plate that had been previously coated with fibronectin. […] A confocal fluorescence microscope was used to assess changes in free intracellular calcium levels in each mast cell in a visual field, as measured by changes in Fluo-4 fluorescence using a standard FITC filter, reflecting responsiveness to elamipretide. Cells were identified as responding if the Fluo-4 signal rose by at least 50% for at least 10 seconds, which clearly distinguishes a ligand-induced response from random flickering events.
Injection site reactions induced by several classes of drugs were mediated in mice by Mrgprb2-dependent activation of mast cells. Whether elamipretide activated primary mouse connective tissue mast cells was evaluated, and if so, it was evaluated whether this was Mrgprb2-dependent. […] Briefly, primary connective tissue mast cells were purified from mice, loaded with Fluo-4, and changes in fluorescence after elamipretide exposure were imaged. T fluorescence of over 200 individual mast cells, each from wild type and Mrgprb2 knockout mice, were monitored and the percentage of total cells that responded was determined.

[2] = system: untransfected cells; assay: Fluo-4 calcium assay in untransfected HEK293 cells; assay type: cell-based, human; details: untransfected cells (data not shown)
[3] = system: non-human primates; details: long term toxicology studies

Q: How did the “intracellular calcium response of mast cells” value ([1]; mast cells from Mrgprb2 knockout mice) turn out when `Cc1cc(O)cc(C)c1C[C@H](NC(=O)[C@H](N)CCCNC(=N)N)C(=O)N[C@@H](CCCCN)C(=O)N[C@@H](Cc1ccccc1)C(N)=O` (stereo in doubt) [Elamipretide, H-D-Arg-2′,6′Dmt-Lys-Phe-NH2] was run?
A: The value was “almost no responses”.

Q: And the “intracellular calcium response of mast cells” value ([1]; wild-type mast cells)?
A: Its value is “Robust increases in intracellular calcium”.

Q: What about the “Fluo-4 fluorescence after elamipretide exposure” value [2] of the same compound?
A: The value was “not in untransfected cells”.

Q: And the injection site reactions [3]?
A: Its injection site reactions is “generally not severe”.
